In ChEMBL document CHEMBL3232749, “Exploring the water-binding pocket of the type II dehydroquinase enzyme in the structure-based design of inhibitors” (J Med Chem, 2014) one finds Ki data, which are given here for six compounds.

Structures are written as SMILES.

One assay has as its target T1, 3-dehydroquinate dehydratase (Helicobacter pylori (strain ATCC 700392 / 26695) (Campylobacterpylori), UniProt Q48255).
T1 sequence (Q48255 whole entry): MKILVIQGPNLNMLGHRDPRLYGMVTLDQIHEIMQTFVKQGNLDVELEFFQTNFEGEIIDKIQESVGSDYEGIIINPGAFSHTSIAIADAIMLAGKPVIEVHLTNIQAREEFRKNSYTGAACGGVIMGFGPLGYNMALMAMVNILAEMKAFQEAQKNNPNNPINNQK
Kind of assay: Reversible competitive inhibition of Helicobacter pylori DHQ2 assessed as conversion of 3-dehydroquinic acid to 3-dehydroshikimic acid by Dixon plot analysis.
Consider `O=C(O)[C@]1(O)C=C([C@@H](Cl)Cc2ccccc2)[C@@H](O)[C@H](O)C1`, for which the Ki – broadly, the dissociation constant of the complex between target and ligand, obtained from inhibition or displacement – is 40.5 µM.

In the case of `O=C(O)[C@]1(O)C=C([C@H](Cl)Cc2ccccc2)[C@@H](O)[C@H](O)C1`, the Ki was 10.5 µM.

Regarding `O=C(O)[C@]1(O)C=C([C@H](O)Cc2ccccc2)[C@@H](O)[C@H](O)C1`, the Ki stood at 33 µM.

Take `O=C(O)[C@]1(O)C=C(CCO)[C@@H](O)[C@H](O)C1`: the Ki worked out at 188 µM.

In the case of `O=C(O)[C@]1(O)C=C([C@@H](O)Cc2ccccc2)[C@@H](O)[C@H](O)C1`, the Ki was 37 µM.

With `O=C(O)[C@]1(O)C=C(CO)[C@@H](O)[C@H](O)C1`, the Ki worked out at 282 µM.

Target in a further assay: not listed separately
Nature of the assay: Reversible competitive inhibition of Mycobacterium tuberculosis DHQ2 assessed as conversion of 3-dehydroquinic acid to 3-dehydroshikimic acid by Dixon plot analysis.
With `O=C(O)[C@]1(O)C=C([C@@H](Cl)Cc2ccccc2)[C@@H](O)[C@H](O)C1`, the Ki amounted to 14.5 µM.

Regarding `O=C(O)[C@]1(O)C=C([C@H](Cl)Cc2ccccc2)[C@@H](O)[C@H](O)C1`, the Ki was determined as 0.48 µM.

On to `O=C(O)[C@]1(O)C=C([C@H](O)Cc2ccccc2)[C@@H](O)[C@H](O)C1`, for which the Ki was determined as 27 µM.

With `O=C(O)[C@]1(O)C=C(CCO)[C@@H](O)[C@H](O)C1`, the Ki came out at 15 µM.

In the case of `O=C(O)[C@]1(O)C=C([C@@H](O)Cc2ccccc2)[C@@H](O)[C@H](O)C1`, the Ki came out at 34 µM.

As to `O=C(O)[C@]1(O)C=C(CO)[C@@H](O)[C@H](O)C1`, the inhibition constant (Ki) amounted to 11.2 µM.
